We go through five compounds from article PMC4033661 (Journal of medicinal chemistry, 2014).

Values after ≈ are worked out from the molar mass of the structure shown. “Also recorded” adds a separate entry of the source.

One data set relates to HT22 cells. Nature of the data set: HT22 cell culture assay, glutamate-induced cell death. In kind it is cell-based, mouse.
Another data set relates to human 12/15-LOX. To be noted: read-out: 12/15-LOX IC50; cited from earlier work.
In data set [1] the target is T1, human platelet 12-lipoxygenase (12-LOX) (Homo sapiens, UniProt P18054).
T1 sequence (P18054 1-663): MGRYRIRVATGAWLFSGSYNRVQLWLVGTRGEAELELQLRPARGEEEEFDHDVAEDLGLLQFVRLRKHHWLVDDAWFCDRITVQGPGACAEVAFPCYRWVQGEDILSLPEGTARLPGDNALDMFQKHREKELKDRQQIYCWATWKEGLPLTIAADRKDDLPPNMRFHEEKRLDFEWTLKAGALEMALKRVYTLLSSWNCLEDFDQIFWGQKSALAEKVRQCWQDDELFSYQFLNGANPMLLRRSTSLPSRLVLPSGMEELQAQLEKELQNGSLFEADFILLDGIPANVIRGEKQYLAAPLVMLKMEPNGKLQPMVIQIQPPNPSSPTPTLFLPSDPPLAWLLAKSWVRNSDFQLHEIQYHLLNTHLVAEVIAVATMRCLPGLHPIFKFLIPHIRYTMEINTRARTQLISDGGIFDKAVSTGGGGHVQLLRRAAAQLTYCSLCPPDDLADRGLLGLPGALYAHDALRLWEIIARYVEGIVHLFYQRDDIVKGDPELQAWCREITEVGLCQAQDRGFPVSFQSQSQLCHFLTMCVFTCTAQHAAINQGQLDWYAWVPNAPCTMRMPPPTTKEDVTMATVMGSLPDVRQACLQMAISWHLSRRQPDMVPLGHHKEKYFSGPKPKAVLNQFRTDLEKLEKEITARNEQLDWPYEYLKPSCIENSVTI
Nature of the data set: Lipoxygenase UV-Vis assay, 12-LOX selectivity.

A short description of data set [2]: Microsomal stability, mouse. The data set is classed as in vitro ADME. As to conditions: mouse liver microsomes, in the presence of NADPH. In general terms: Liver microsomes are vesicles of endoplasmic reticulum, rich in cytochrome P450 enzymes.
The nature of data set [3]: Microsomal stability, rat. In kind it is in vitro ADME. As to conditions: rat liver microsomes, in the presence of NADPH.
Data set [4] can be described thus: Stability in aqueous solutions. The data set is classed as physicochemical. As to conditions: pH 2, pH 7.4, pH 9.
Data set [5] in a line: Aqueous kinetic solubility in PBS buffer. As to conditions: pH 7.4. The data set is classed as physicochemical.

What is called kinetic solubility is the concentration staying in solution when a stock, usually in DMSO, is diluted into the medium.

On to `CNc1nc(C#N)c(-c2cccc3ccccc23)o1` [Compound 34], for which, in the data set with HT22 cells (5 μM concentration, glutamate-treated), the “cellular protection in HT22 cells” value is recorded as “did not protect; also recorded: does not protect”.

As for `O=c1cc(-c2ccccc2)oc2cc(O)c(O)c(O)c12` [baicalein], in the data set on human 12/15-LOX, the IC50 was 1600 nM.

For `C[C@H]1[C@H](C)CC[C@]2(C)CC[C@]3(C)C(=CC[C@@H]4[C@@]5(C)CC[C@@H](O)[C@](C)(C(=O)O)[C@@H]5CC[C@]43C)[C@H]12` [boswellic acid], in the data set on human 12/15-LOX, the IC50 is 1000 nM.

In data set [1], `CNc1sc(-c2cccc3ccccc23)nc1C#N` [Compound 32, 5-(methylamino)-2-(naphthalen-1-yl)thiazole-4-carbonitrile] showed an IC50 above 50000 nM.

`CNc1oc(-c2cccc3ccccc23)nc1C#N` [Compound 1, 5-(Methylamino)-2-(naphthalen-1-yl)oxazole-4-carbonitrile]: the results for the “Microsomal Stability T1/2” value in data set [2] and in data set [3] were 5.5 (mouse) min and 18 (rat) min, respectively. Besides, in the data set on HT22 cells (HT22 cells, 5 mM glutamate, increasing amounts of compound), the “protection against oxidative glutamate toxicity” value is given as “protective; also recorded: dose-dependent protection”. Moreover, the “stability in aqueous solutions” value in data set [4] is reported as “stable”. In data set [5], the solubility (kinetic) worked out at 1.2 µM (≈ 0.299 µg/mL).
